SMILES strings stand for the structures.

One experiment has as its system L1210A tumors. The experiment is described as follows: Tyrosine kinase inhibitor/folate-FITC combination therapy in L1210A tumor-bearing mice. The format is in vivo, mouse (DBA/2). The settings on record: for tumor volume plot: position of the line at the longest duration (PBS control topmost): FIG. 16; for tumor volume plot: position of the line at the longest duration (PBS control second line from the bottom): FIG. 4. The method, then: The effect of the combination therapy strategy of Example 1 was evaluated on an alternative tumor type. The […] lymphocytic leukemia cell line was selected due to its high FR expression levels and its ability to grow in immune competent mice. Female DBA/2 mice (purchased from Harlan Laboratories in Indianapolis, Ind.) were used in this model. Mice were injected subcutaneously with 1×10^6 cells suspended in PBS on the left flank. […] Doses of 500 nmols/Kg of folate-FITC in phosphate buffered saline (PBS) by intraperitoneal injection were used in the folate-FITC alone treatment and the combination treatment.
All treatment groups were terminated when tumors in the PBS control group reached 1500 mm^3 and tumors and spleens were harvested for analysis. The excised tumors were digested using a collagenase cocktail and single cell suspensions were stained for the presence of FR, macrophages, MDSC, and T cells and analyzed by flow cytometry. The intra-tumoral vasculature content in mice treated with PBS, folate-FITC alone, sunitinib alone, or a combination of folate-FITC and sunitinib was imaged, as shown in FIG. 6. […] Portions of each tumor were also cryopreserved for sectioning and immunohistochemistry staining. Harvested spleens were also processed into single cell suspensions and analyzed for immune cell content. The percentage of CD4+ and CD8+ cytotoxic T cell in spleens of L1210A tumor-bearing mice treated with PBS, folate-FITC alone, sunitinib alone, or a combination of folate-FITC and sunitinib was determined, as shown in FIG. 5.
A second RTK inhibitor, axitinib, was studied in combination with folate-FITC on one of the tumor models. The combination therapy was tested in the L1210A lymphoma model following the experimental methods detailed in Example 2, using an axitinib concentration of 15 mg/Kg administered daily by oral gavage in place of sunitinib. The groups of mice were treated with PBS, folate-FITC alone (500 nmols/Kg of folate-FITC in phosphate buffered saline), axitinib alone, or a combination of folate-FITC and axitinib. Average weights of tumors and spleens of L1210A tumor-bearing mice are shown in FIGS. 17 and 18, respectively.

A further experiment concerns Renca tumors. The experiment is described as follows: Sunitinib/folate-FITC combination therapy in Renca tumor-bearing mice. It counts as in vivo, mouse (Balb/c). The settings on record: FIG. 2.
The next experiment concerns M109 tumors. The experiment is described as follows: Sunitinib/folate-FITC combination therapy in the M109 lung cancer model. The format is in vivo, mouse (Balb/c). The settings on record: M109 tumor-bearing mice; FIG. 11. As to the method: Solid M109 lung tumors were established on the shoulders of KLH-FITC immunized Balb/c mice (5-6 weeks old from Harlan Laboratories, Indianapolis, Ind.) by injecting them subcutaneously with 1×10^6 of syngeneic M109 cells suspended in media containing 1% female Balb/c serum. The mice were treated according to the same dosing schedule described in Examples 1 and 2. The groups of mice were treated with PBS, folate-FITC alone (500 nmols/Kg of folate-FITC in phosphate buffered saline), sunitinib alone, or a combination of folate-FITC (500 nmols/Kg of folate-FITC in phosphate buffered saline) and sunitinib. Following completion of the study and termination of treatment, the treated animals were sacrificed and tumors and spleens were harvested for analysis as described in Example 2.

Protocol for Renca tumors: In order to test the effect of combining Sunitinib with folate-targeted immunotherapy on tumor regression in a clinically representative model, the combination therapy was evaluated in Renca tumors, a mouse syngeneic kidney cancer cell line. Renca cells were maintained in a folate deficient cell culture medium and were selected for high folate receptor (FR) expression via multiple steps of cell sorting before being used in therapeutic studies. […] In turn, folate-FITC was used as a folate-hapten conjugate in the therapeutic studies. Female Balb/c mice aged 5-6 weeks were purchased from Harlan Laboratories in Indianapolis, Ind. After allowing one week for the mice to acclimate to their environment, they were vaccinated with 35 ug KLH-FITC in 50 ug GPI-0100 as adjuvant. […]
Several days before the third immunization, each mouse was injected subcutaneously on the left flank with 1×10^6 Renca cells in serum free medium. […] Treatment was initiated when tumors measured 50 mm^3. […] Tumor sizes were measured using digital calipers on alternating days, and tumor volumes were calculated using the equation ½ (L×W^2).
Once it was determined that a study needed to be suspended due to tumor size, all animals in the treatment groups were euthanized within 1-2 days and their tumors and spleens harvested for freezing and analysis by flow cytometry. […]

Take `Nc1nc2ncc(CNc3ccc(C(=O)NC(CCC(=O)NCCNC(=S)Nc4ccc(-c5c6ccc(=O)cc-6oc6cc(O)ccc56)c(C(=O)O)c4)C(=O)O)cc3)nc2c(=O)[nH]1` (stereo not drawn) [folate-FITC]: the “tumor volume plot: position of the line at the longest duration (PBS control topmost)” value (shortened to “tumor volume plot … (PBS control topmost)”) was “second topmost line” in the experiment on L1210A tumors (axitinib study), “second topmost line” in the experiment with Renca tumors and “second line from the bottom” in the experiment on M109 tumors. Besides, the “average weights of spleens” value was “swelling of the spleens” in the experiment with L1210A tumors (axitinib study, FIG. 18) and “swelling of the spleens” with L1210A tumors (sunitinib study, FIG. 9). Moreover, in the experiment with L1210A tumors (sunitinib study), the “tumor volume plot: position of the line at the longest duration (PBS control second line from the bottom)” value was “topmost line”.
Regarding `CNC(=O)c1ccccc1Sc1ccc2c(/C=C/c3ccccn3)n[nH]c2c1` [axitinib], the “tumor volume plot … (PBS control topmost)” value in the experiment with L1210A tumors (axitinib study) is given as “second line from the bottom”. The “average weights of spleens” value with L1210A tumors (axitinib study, FIG. 18) is given as “swelling of the spleens”.
Regarding `CCN(CC)CCNC(=O)c1c(C)[nH]c(/C=C2\C(=O)Nc3ccc(F)cc32)c1C` [sunitinib], the “tumor volume plot: position of the line at the longest duration (PBS control second line from the bottom)” value with L1210A tumors (sunitinib study) is given as “second topmost line”. Besides, the “average weights of spleens” value with L1210A tumors (sunitinib study, FIG. 9) was “swelling of the spleens”. For the same compound, the “tumor volume plot … (PBS control topmost)” value is given as “second line from the bottom” in the experiment on Renca tumors and “second topmost line” with M109 tumors.
